Laboratory results published in US11530196B2, “Pyrimidine compound acting on EGFR and ERBB2” (CHINA RESOURCES PHARMACEUTICAL HOLDINGS COMPANY LIMITED, priority 2019, dated 2022).
Several values for one entry are separate records, joined by “and”; a condition that tells them apart may be missing. Equal entries are not always repeated.

Experiments:
[1] = Compound stability test in plasma (rat); format: in vitro ADME, SD rat
Experimental: (§1) In this study, mouse, SD rat, Beagle, cynomolgus monkey and human plasma were used as materials to investigate the stability of the tested compounds in the plasma of the above five species. Propantheline, Enalapril, Bisacodyl and Procaine were used as control compounds.
(§2) The experimental conditions for the test compounds were as follows: • test concentration: 2 μM (DMSO ≤0.5%); • incubation times: 0, 10, 30, 60 and 120 minutes; • frozen plasma (from multiple species) was used in the test system; • incubation conditions: 37° C.
(§3) The mixed frozen plasma was thawed in a 37° C. water bath prior to the experiment. Plasma was centrifuged at 4000 rpm for 5 minutes and cleared if there was a clot. The pH will be adjusted to 7.4±0.1 if required.
(§4) The intermediate solution of 1 mM compound and positive control was prepared by diluting 10 mM stock solution with 90 μL of dimethyl sulfoxide. 100 μM solution was prepared by diluting 20 μL of intermediate solution (1 mM) with 180 μL of 45% methanol/water.
(§5) 2 μL of 100 μM solution was added to 98 μL of blank plasma to achieve a final concentration of 2 μM (in duplicate) of the sample, and the sample was incubated in a 37° C. water bath. At each time point (0, 10, 30, 60 and 120 min), 400 μL of termination solution (200 ng/mL toluenesulfonylurea and 200 ng/mL labetalol, 50% ACN/MeOH) was added to precipitate the proteins and mixed thoroughly. […]

[2] = biological target: EGFR exon 20 insertion (D770_N771insNPG) enzyme (Homo sapiens, UniProt P00533, INS770NPG); experiment: Kinase assay (HTRF KinEASE TK), EGFR exon 20 insertion; format: biochemical
Sequence of EGFR exon 20 insertion (D770_N771insNPG) enzyme (P00533 with tags, fused parts or gaps INS770NPG limits assumed): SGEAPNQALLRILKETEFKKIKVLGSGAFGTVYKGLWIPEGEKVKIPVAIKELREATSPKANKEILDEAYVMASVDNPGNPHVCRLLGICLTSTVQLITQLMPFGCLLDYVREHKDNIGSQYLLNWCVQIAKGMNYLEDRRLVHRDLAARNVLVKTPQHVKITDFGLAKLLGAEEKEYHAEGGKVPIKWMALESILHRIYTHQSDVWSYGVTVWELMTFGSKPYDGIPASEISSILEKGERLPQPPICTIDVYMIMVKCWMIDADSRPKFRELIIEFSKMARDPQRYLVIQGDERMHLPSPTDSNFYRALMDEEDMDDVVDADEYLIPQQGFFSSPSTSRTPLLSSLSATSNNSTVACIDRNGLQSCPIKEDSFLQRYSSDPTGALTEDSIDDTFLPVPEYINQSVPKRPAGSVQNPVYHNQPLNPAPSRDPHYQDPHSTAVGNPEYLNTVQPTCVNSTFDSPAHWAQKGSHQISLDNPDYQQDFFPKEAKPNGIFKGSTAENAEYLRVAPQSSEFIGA
From the text: (§6) To detect the inhibitory effect of compounds on EGFR WT, EGFR (D770_N771insNPG), ERBB2 (V777_G778ins>CG), EGFR T790M/L858R enzyme activities
(§7) EGFR WT (Invitrogen, Cat. No. PR7295B), EGFR [L858R] (Invitrogen, Cat. No. PR7447A), EGFR [d746-750] (Invitrogen, Cat. No. PV6179), ATP (Sigma, Cat. No. A7699-1G), DMSO (Sigma, Cat. No. D2650), DTT (Sigma, Cat. No. 43815), 384-well plate, compound dilution plate (Greiner, Cat. No. 781280), 384-well plate, test plate (Perkin Elmer, Cat. No. 6007299), HTRF KinEASE TK Kit (Cisbio, Cat. No. 62TK0PEB), magnesium chloride (Sigma, Cat. No. M1028), Orthovanadate (Sigma, Cat. No. 56508), BSA (Sigma, Cat. No. A7030), HEPES (Life technology, Cat. No. 11344-041).
(§8) The final test concentrations of the test compounds ranged from 10 μM to 0.17 nM in 3-fold gradient dilutions at 11 concentrations.
(§9) The preparation of the buffer, 50 mM HEPES (pH 7.5), 0.01% BSA, 5 mM MgCl2, and 0.1 mM Orthovanadate were contained in the buffer. After the preparation of the buffer, the enzyme and substrate were mixed with pre-diluted prepared compounds of different concentrations, and the mixture was placed at room temperature for 15 minutes. […] After the reaction was completed, the antibody was added to the assay, incubated at room temperature for 60 minutes and then detected by Envision (plate reading instrument), and data were collected. […]

[3] = Compound stability test in plasma (dog); format: in vitro ADME, Beagle
Experimental: as §1, §2, §3, §4, §5

[4] = system: A431 (EGFR wild type) cells; experiment: Anti-proliferation activity test against A431 cells; format: cell-based; details: Homo sapiens, A-431; A431, Cell-Titer Glo, 72 hours
Experimental: (2) Anti-Proliferation Activity Test of the Compound Against H1975 Cells and IC50 Test of Anti-Proliferation Activity Against A431 Cells
RPMI1640 medium, FBS fetal bovine serum, trypsin-EDTA, were all purchased from Giboco. DPBS was purchased from Corning, penicillin/streptomycin solution was purchased from Hyclone, and Cell-Titer Glo reagent was purchased from Promega (1kit, Cat. No. G7571). Plate reading instrument: Envision (PerkinElmer).
384-well plates in columns 1, 2, and 24 were added with 45 μL of medium, and the cell suspension was dispensed with Multi-drop at 45 μL per well (1000 cells) and incubated overnight in an incubator. The compound was added to the source plate according to the Echo dispensing requirements, the compound in the source plate was added to the inter plate and diluted to an intermediate concentration, then the compound in the source plate and the inter plate was added to the cell plate, and the cells were continued to be incubated in a incubator for 72 hours. After 72 hours, Cell-Titer Glo reagent and cells were removed and equilibrated at room temperature for 30 min. 25 μL of Cell-Titer Glo reagent was dispensed into 384-well plates with Multi-drop, the cell plate was vibrated at medium speed for 3 min, centrifuged at 1000 rpm for 2 min, and stood for 10 min. The plate was read by Envision (Luminescence). […]

[5] = biological target: EGFR L858R/T790M double mutant enzyme (Homo sapiens, UniProt P00533, L858R/T790M); experiment: Kinase assay (HTRF KinEASE TK), EGFR L858R/T790M; format: biochemical
Sequence of EGFR L858R/T790M double mutant enzyme (P00533 25-1210 T790M/L858R): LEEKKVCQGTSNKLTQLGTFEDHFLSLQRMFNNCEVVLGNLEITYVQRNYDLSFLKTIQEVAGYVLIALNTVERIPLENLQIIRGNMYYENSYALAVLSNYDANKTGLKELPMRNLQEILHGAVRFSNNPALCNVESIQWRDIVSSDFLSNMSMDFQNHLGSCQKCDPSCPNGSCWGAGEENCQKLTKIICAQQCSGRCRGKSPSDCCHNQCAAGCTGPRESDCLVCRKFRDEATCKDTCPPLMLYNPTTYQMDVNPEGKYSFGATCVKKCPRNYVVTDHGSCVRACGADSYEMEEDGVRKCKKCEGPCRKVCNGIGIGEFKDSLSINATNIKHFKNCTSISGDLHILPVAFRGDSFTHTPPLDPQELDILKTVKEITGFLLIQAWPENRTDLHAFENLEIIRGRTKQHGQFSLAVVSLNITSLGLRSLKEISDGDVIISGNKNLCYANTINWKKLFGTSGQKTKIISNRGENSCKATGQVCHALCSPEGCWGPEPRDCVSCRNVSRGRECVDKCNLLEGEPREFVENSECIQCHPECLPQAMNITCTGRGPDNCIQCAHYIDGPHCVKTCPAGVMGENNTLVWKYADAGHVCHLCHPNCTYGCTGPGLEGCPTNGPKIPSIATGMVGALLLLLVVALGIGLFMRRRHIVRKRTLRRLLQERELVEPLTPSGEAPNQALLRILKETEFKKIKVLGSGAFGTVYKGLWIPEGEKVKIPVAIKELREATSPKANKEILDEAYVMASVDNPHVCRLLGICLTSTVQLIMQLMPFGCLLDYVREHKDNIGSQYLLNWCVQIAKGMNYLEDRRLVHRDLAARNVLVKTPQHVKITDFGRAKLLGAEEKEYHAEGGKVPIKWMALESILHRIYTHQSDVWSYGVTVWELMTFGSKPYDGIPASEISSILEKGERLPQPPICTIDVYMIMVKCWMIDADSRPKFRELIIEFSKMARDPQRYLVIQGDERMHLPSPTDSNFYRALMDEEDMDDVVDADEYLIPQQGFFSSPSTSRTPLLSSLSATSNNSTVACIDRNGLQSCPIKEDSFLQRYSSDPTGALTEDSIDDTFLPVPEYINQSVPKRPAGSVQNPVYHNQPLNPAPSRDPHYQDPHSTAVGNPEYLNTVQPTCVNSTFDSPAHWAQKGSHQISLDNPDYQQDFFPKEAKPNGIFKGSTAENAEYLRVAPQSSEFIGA
From the text: as §6, §7, §8, §9

In vitro plasma stability (Residual percentage) ([1]; 120 minutes, 2 μM, 37° C.): 87.9%
half-life at 2 µM ([1]; Sprague-Dawley (SD), pH 7.4, 37° C., read-out: In vitro plasma half-life T1/2): > 4.82 h
IC50 [2]: 0.8 nM and 0.7 nM
In vitro plasma stability (Residual percentage) ([3]; 120 minutes, 2 μM, 37° C.): 101.7%
half-life at 2 µM ([3]; beagle, pH 7.4, 37° C., read-out: In vitro plasma half-life T1/2): > 4.82 h
IC50 [4]: 335 nM
IC50 [5]: 3.71 nM
SMILES: C=CC(=O)Nc1cc(Nc2ncc(C(=O)OC(C)C)c(-c3cn(OC)c4ccccc34)n2)c(OC)cc1N(C)CCN(C)C.CS(=O)(=O)O [Compound 1]
